Values of other authors in patent US10703699B2, “Solubilization of pterostilbene and resveratrol for aqueous beverages” (Ironstone Separations, Inc., priority 2013, dated 2020).

Experiments:
[1] = animal studies

In the case of `Oc1ccc(/C=C/c2cc(O)cc(O)c2)cc1` [Resveratrol, 3,5,4′-trihydroxy-trans-stilbene], the bioavailability [1] is given as 20%.

In the case of “trans-3,5-dimethoxy-4-hydroxystilbene [Pterostilbene]”, the bioavailability [1] is listed as 80% and the “Solubility in aqueous media” value is listed as “very low”.
